Assay results reported in US20240246942A1, “KINASE INHIBITORS FOR THE TREATMENT OF NEURODEGENERATIVE DISEASES” (priority 2020, published 2024).

Experiments:
[1] = Microsomal stability, mouse; assay type: in vitro ADME; details: mouse microsomes
[2] = biological target: T1, panel of 374 wild-type kinases (Homo sapiens, UniProt P25098); experiment: biochemical; details: read-out: % Enzyme Activity (relative to DMSO controls), GRK2
T1 construct: purchased Reaction Biology Corporation
T1 sequence (P25098 1-689): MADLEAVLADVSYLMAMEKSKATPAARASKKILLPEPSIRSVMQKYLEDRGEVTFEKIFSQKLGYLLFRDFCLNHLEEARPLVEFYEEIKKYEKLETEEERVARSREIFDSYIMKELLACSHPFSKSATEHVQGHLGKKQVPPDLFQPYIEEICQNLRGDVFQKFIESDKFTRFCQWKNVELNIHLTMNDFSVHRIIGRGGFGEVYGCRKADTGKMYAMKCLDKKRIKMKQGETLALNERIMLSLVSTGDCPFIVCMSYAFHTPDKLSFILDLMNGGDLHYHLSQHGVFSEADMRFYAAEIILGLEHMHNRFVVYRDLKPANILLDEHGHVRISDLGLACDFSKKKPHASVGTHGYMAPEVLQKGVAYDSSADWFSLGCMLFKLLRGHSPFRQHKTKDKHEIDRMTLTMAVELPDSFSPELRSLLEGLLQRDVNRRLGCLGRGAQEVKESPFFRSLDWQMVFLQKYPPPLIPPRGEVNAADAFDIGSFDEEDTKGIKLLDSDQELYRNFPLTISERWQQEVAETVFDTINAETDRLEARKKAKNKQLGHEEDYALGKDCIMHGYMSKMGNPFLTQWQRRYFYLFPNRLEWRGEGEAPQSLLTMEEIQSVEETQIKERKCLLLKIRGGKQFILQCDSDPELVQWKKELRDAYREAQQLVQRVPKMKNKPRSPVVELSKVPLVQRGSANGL

[3] = biological target: T2, panel of 374 wild-type kinases (Homo sapiens, UniProt Q16566); experiment: biochemical; details: read-out: % Enzyme Activity (relative to DMSO controls), CAMK4
T2 construct: purchased Reaction Biology Corporation
T2 sequence (Q16566 whole entry): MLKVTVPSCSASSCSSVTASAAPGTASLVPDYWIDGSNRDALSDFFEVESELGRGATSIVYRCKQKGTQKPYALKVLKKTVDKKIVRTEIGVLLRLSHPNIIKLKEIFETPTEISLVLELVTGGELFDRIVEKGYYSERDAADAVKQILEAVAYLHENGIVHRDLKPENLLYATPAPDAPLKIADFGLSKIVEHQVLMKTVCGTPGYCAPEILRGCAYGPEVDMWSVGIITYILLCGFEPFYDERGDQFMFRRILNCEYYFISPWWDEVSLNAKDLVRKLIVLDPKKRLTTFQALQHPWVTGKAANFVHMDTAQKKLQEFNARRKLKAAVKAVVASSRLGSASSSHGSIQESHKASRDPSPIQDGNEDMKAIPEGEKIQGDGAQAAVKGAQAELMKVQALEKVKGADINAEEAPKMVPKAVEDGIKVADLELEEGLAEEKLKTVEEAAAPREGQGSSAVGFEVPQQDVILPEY

[4] = biological target: T3, panel of 374 wild-type kinases (Homo sapiens, UniProt P53667); experiment: biochemical; details: read-out: % Enzyme Activity (relative to DMSO controls), LIMK1
T3 construct: purchased Reaction Biology Corporation
T3 sequence (P53667 whole entry): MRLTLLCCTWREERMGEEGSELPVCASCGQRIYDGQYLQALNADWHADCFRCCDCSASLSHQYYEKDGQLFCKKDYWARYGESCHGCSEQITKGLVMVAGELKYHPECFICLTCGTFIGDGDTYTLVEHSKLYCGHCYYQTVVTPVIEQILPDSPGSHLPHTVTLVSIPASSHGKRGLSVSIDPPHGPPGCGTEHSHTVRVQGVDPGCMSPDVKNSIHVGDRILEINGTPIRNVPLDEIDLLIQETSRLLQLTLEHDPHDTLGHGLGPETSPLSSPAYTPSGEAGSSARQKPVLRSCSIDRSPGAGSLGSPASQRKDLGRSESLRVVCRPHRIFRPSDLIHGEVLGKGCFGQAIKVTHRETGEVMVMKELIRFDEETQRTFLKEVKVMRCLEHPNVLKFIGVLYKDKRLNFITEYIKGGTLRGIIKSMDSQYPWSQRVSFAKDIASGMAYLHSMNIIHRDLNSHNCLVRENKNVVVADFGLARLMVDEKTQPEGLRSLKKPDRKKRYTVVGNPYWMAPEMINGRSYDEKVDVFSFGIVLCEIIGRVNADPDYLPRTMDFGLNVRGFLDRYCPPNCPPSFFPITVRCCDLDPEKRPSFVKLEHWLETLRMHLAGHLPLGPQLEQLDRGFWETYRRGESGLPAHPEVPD

[5] = biological target: T4, panel of 374 wild-type kinases (Homo sapiens, UniProt Q6P3R8); experiment: biochemical; details: read-out: % Enzyme Activity (relative to DMSO controls), NEK5
T4 construct: purchased Reaction Biology Corporation
T4 sequence (Q6P3R8 1-708): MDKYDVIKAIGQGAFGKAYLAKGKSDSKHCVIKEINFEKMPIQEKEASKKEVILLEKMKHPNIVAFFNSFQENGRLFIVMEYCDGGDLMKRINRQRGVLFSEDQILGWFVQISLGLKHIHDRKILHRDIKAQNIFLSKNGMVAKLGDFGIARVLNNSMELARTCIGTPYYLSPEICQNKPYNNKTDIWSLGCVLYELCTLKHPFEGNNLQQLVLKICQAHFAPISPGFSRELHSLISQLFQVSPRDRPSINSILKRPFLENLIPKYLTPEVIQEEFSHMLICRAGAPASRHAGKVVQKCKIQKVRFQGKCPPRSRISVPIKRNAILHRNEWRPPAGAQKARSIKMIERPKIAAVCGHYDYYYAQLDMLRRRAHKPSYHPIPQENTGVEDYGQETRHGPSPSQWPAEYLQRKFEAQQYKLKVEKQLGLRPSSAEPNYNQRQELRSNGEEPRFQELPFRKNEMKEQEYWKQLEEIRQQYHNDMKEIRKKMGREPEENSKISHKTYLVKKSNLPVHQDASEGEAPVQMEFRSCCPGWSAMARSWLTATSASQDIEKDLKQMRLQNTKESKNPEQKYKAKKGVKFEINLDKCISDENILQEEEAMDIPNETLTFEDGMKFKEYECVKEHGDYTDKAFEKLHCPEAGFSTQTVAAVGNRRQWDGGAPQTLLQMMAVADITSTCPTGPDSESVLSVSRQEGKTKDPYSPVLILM

[6] = biological target: T5, panel of 374 wild-type kinases (Homo sapiens, UniProt Q96PY6); experiment: biochemical; details: read-out: % Enzyme Activity (relative to DMSO controls), NEK1
T5 construct: purchased Reaction Biology Corporation
T5 sequence (Q96PY6 1-1258): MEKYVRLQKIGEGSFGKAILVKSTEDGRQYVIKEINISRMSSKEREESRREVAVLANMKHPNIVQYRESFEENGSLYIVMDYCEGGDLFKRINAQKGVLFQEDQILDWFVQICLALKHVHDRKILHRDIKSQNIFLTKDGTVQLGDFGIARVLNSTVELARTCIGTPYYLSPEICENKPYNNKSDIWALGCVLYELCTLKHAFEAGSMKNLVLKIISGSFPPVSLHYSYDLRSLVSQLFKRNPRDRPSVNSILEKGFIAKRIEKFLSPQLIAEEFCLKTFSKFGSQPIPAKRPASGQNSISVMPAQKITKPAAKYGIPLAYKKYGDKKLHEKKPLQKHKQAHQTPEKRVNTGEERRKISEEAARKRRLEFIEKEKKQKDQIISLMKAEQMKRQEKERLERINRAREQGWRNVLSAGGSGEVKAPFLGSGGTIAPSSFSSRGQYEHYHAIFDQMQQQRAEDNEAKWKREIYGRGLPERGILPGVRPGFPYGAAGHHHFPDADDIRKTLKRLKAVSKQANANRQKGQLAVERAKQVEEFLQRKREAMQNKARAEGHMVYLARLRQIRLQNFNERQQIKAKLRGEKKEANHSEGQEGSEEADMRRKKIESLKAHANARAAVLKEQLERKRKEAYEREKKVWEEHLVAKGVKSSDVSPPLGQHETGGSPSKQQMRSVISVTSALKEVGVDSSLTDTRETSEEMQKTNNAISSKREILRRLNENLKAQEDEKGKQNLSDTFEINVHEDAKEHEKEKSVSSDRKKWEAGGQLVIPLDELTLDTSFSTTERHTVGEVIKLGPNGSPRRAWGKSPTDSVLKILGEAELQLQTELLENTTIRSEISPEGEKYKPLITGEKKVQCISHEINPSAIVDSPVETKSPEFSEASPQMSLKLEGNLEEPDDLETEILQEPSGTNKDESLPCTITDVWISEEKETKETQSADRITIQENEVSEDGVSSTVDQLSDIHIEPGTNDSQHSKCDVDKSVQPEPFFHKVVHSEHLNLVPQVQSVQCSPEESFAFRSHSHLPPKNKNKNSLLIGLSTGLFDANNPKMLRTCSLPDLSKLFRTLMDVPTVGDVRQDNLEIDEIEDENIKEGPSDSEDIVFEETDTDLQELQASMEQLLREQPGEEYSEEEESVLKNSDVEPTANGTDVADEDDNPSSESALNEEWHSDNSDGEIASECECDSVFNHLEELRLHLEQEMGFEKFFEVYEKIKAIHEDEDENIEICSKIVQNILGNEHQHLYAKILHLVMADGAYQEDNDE

Row | Structure (SMILES) | Mic. stability t1/2 Mouse [1] [min] | remaining activity at 5 µM [2] [%] | remaining activity at 5 µM [3] [%] | remaining activity at 5 µM [4] [%] | remaining activity at 5 µM [5] [%] | remaining activity at 5 µM [6] [%] | remaining activity at 10 µM ([2]; 10 uM) [%] | remaining activity at 10 µM ([3]; 10 uM) [%] | remaining activity at 10 µM ([4]; 10 uM) [%] | remaining activity at 10 µM ([5]; 10 uM) [%] | remaining activity at 10 µM ([6]; 10 uM) [%]
1 | O=C(Nc1cnn(-c2csc(C(=O)NC3COC3)c2)c1)Nc1c(F)cccc1Cl [Compound 25, 4-(4-(3-(2-chloro-6-fluorophenyl)ureido)-1H-pyrazol-1-yl)-N-(oxetan-3-yl)thiophene-2-carboxamide] | 72 | 106 | 98.7 | 104 | 88.1 | 77.2 | – | – | – | – | –
2 | O=C(Nc1cnn(-c2csc(C(=O)NC3COC3)c2)c1)Nc1ccccc1Cl [Compound 17, 4-(4-(3-(2-chlorophenyl)ureido)-1H-pyrazol-1-yl)-N-(oxetan-3-yl)thiophene-2-carboxamide] | 24 | 96.1 | 114 | 96.2 | 110 | 115 | – | – | – | – | –
3 | Cc1sc(C(=O)NC2COC2)cc1-n1cc(NC(=O)Nc2c(F)cccc2Cl)cn1 [Compound 27, 4-(4-(3-(2-chloro-6-fluorophenyl)ureido)-1H-pyrazol-1-yl)-5-methyl-N-(oxetan-3-yl)thiophene-2-carboxamide] | 57 | – | – | – | – | – | 106 | 98.5 | 105 | 105 | 90.4
